{
  "source": "patent US6376491B1",
  "about": "“Bicyclic compounds” (Basilea Pharmaceutica AG, priority 1998, dated 2002)",
  "key": {"[1]": {"test_system": "Cryptococcus neoformans (Cr. neoformans) cells (strain MTU13001)", "experiment": "In vitro antifungal activity, broth micro-dilution, turbidity at 600 nm", "type": "cell-based", "conditions": "YNBPB medium, 35° C., 24 hours, OD600; for IC50: Cryptococcus neoformans, read-out: Inhibition against in vitro cell growth, Cr. neoformans (MTU13001) IC50", "procedure": "In vitro antifungal activity of the bicyclic compounds was determined using the Cryptococcus neoformans (Cr. neoformans) cells (strain MTU13001) according to the broth micro-dilution procedure (National Committee for Clinical Laboratory Standard (1992). Document M27-P). 10^4 cells in […] of YNBPB medium (YNB (Difco), 1% (w/v) dextrose (Wako), 0.25% K2HPO4 (Wako)) containing various concentrations of compounds were dispensed in 96-well plates and incubated at 35° C. for 24 hours. The turbidity of the cell suspension was measured using a Microplate leader (WL320, Bio-Tek Instrument) at 600 nm. Antifungal activity of each compound was indicated as 50% inhibition concentration (IC50) values that was determined by calculation the minimum concentration of the compound required for the 50% reduction of the turbidity (OD600) of cells compared to untreated control cells."}, "[2]": {"experiment": "Acute toxicity (LD50) by intravenous administration in mice", "conditions": "mouse, in vivo", "from_the_text": "The acute toxicity (LD50) of the representative bicycle compound (Example 42) of the present invention was examined by intravenous administration in mice."}},
  "data": [
    {"smiles": "Cc1c(COc2ccc3oc(C(C)(C)O)cc3c2)oc2cccc(OCCCNCc3cccnc3)c12", "note": "[Example 44-2, 2-[5-(3-methyl-4-{3-[(pyridin-3-ylmethyl)-amino]-propoxy}-benzofuran-2-ylmethoxy)-benzofuran-2-yl]-propan-2-ol]", "values": [
      {"measurement": "IC50", "setting": "[1]", "result": 6.1, "unit": "µg/mL"}
    ]},
    {"smiles": "Cc1c(C(=O)Nc2ccc(N3CCOCC3)cc2)oc2cccc(OCCCNCc3cccnc3)c12", "note": "[Example 69, 3-Methyl-4-{3-[(pyridin-3-ylmethyl)-amino]-propoxy}-benzofuran-2-carboxylic Acid (4-morpholin-4-yl-phenyl)-amide]", "values": [
      {"measurement": "IC50", "setting": "[1]", "result": 57, "unit": "µg/mL"}
    ]},
    {"smiles": "Cc1c(COc2ccc(F)cc2F)oc2cccc(OCCCNCc3cccnc3)c12", "note": "[Example 12, {3-[2-(2,4-Difluorophenoxymethyl)-3-methyl-benzofuran-4-yloxy]-propyl}-pyridin-3-ylmethyl-amine]", "values": [
      {"measurement": "IC50", "setting": "[1]", "result": 4.4, "unit": "µg/mL"}
    ]},
    {"smiles": "Cc1c(COc2ccc(C#N)cc2)oc2cccc(OCCCNCc3cccnc3)c12", "note": "[Example 32, 4-(3-Methyl-4-{3-[(pyridin-3-ylmethyl)-amino]-propoxy}-benzofuran-2-ylmethoxy)-benzonitrile]", "values": [
      {"measurement": "IC50", "setting": "[1]", "result": 69, "unit": "µg/mL"}
    ]},
    {"smiles": "CCOC(=O)c1oc2cccc(OCCCNC3CCN(Cc4ccccc4)CC3)c2c1C", "note": "[Example 100, 4-(3-(1-Benzyl-piperidin-4-ylamino)-propoxy)-3-methyl-benzofuran-2-carboxylic Acid Ethyl Ester]", "values": [
      {"measurement": "IC50", "setting": "[1]", "result": 2.1, "unit": "µg/mL"}
    ]},
    {"smiles": "Cc1c(C(=O)NCCc2ccccc2)oc2cccc(OCCCNC3CCN(Cc4ccccc4)CC3)c12", "note": "[Example 112, 4-[3-(1-Benzyl-piperidin-4-ylamino)-propoxy]-3-methyl-benzofuran-2-carboxylic Acid Phenethyl-amide]", "values": [
      {"measurement": "IC50", "setting": "[1]", "result": 3.1, "unit": "µg/mL"}
    ]},
    {"smiles": "CCOCc1cc2cc(OCc3oc4cccc(OCCCNCc5cccnc5)c4c3C)ccc2o1", "note": "[Example 42, [3-[2-(2-Ethoxymethyl-benzofuran-5-yloxymethyl)-3-methyl-benzofuran-4-yloxy]-propyl]-pyridin-3-ylmethyl-amine]", "values": [
      {"measurement": "IC50", "setting": "[1]", "result": 2.5, "unit": "µg/mL"},
      {"measurement": "LD50", "setting": "[2]", "result": "> 50", "unit": "mg/kg"}
    ]},
    {"smiles": "CCOCc1oc2cccc(OCCCNCc3cccnc3)c2c1C", "note": "[Example 52, [3-(2-Ethoxymethyl-3-methyl-benzofuran-4-yloxy)-propyl]-pyridin-3-ylmethyl-amine]", "values": [
      {"measurement": "IC50", "setting": "[1]", "result": 2.6, "unit": "µg/mL"}
    ]},
    {"smiles": "Cc1c(COc2ccc(F)c(F)c2F)oc2cccc(OCCCNCc3cccnc3)c12", "note": "[Example 21, {3-[2-(2,3,4-Trifluorophenoxymethyl)-3-methyl-benzofuran-4-yloxy]-propyl}-pyridin-3-ylmethyl-amine]", "values": [
      {"measurement": "IC50", "setting": "[1]", "result": 5.8, "unit": "µg/mL"}
    ]},
    {"smiles": "CCOC(=O)c1ccc(NC(=O)c2oc3cccc(OCCCNC(C)(C)C)c3c2C)cc1", "note": "[Example 64, 4-[[4-(3-tert-Butylamino-propoxy)-3-methyl-benzofuran-2-carbonyl]-amino]-benzoic Acid Ethyl Ester]", "values": [
      {"measurement": "IC50", "setting": "[1]", "result": 2.1, "unit": "µg/mL"}
    ]},
    {"smiles": "Cc1c(CSCCc2ccccc2)oc2cccc(OCCCNC(C)C)c12", "note": "[Example 55, Isopropyl-[3-(3-methyl-2-phenethylsulfanylmethyl-benzofuran-4-yloxy)-propyl]-amine]", "values": [
      {"measurement": "IC50", "setting": "[1]", "result": 1.8, "unit": "µg/mL"}
    ]},
    {"smiles": "Cc1c(COc2cccnc2)oc2cccc(OCCCNCc3cccnc3)c12", "note": "[Example 31, {3-[3-Methyl-2-(pyridin-3-yloxymethyl)-benzofuran-4-yloxy]-propyl}-pyridin-3-ylmethyl-amine]", "values": [
      {"measurement": "IC50", "setting": "[1]", "result": 19, "unit": "µg/mL"}
    ]},
    {"smiles": "Cc1c(C2=NC(C(=O)N3CCN(C)CC3)C(CC3CCCCC3)O2)oc2cccc(OCCCNCc3cccnc3)c12", "note": "(racemic) [Example 88, dl-[5-Cyclohexylmethyl-2-(3-methyl-4-{3-[(pyridin-3-ylmethyl)-amino]-propoxy}-benzofuran-2-yl)-trans-4,5-dihydro-oxazol-4-yl]-(4-methyl-piperazin-1-yl)-methanone]", "values": [
      {"measurement": "Inhibition against in vitro cell growth, Cr. neoformans (MTU13001) IC50", "setting": "[1]", "result": 5.3, "unit": "µg/mL"}
    ]},
    {"smiles": "CCOC(=O)c1oc2cccc(OCCCNCc3ccc(N(C)C)cc3)c2c1C", "note": "[Example 99, 4-(3-(4-Dimethylamino-benzylamino)-propoxy)-3-methyl-benzofuran-2-carboxylic Acid Ethyl Ester]", "values": [
      {"measurement": "IC50", "setting": "[1]", "result": 1.9, "unit": "µg/mL"}
    ]}
  ]
}
